Test results from ChEMBL document CHEMBL1201862, “PubChem BioAssay data set” (2004).
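1) Cells in 96-well plates. 2) Compound, 48 h, 5 concentrations. 3) Linear interpolation between surrounding doses. 4) Unreached endpoint = highest concentration. At the GI50, growth is halved.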 Active and inactive are the calls of the source. Rule as the data show it: active = GI50 up to about 1.1 µM and inactive = higher.

Columns and labels:
Test in all cases: NCI-60 cell line screen, 48 h
[1] = test system: A498
[2] = test system: HCC 2998
[3] = test system: HCT-116
[4] = test system: HL-60
[5] = test system: HOP-62
[6] = test system: HOP-92
[7] = test system: Hs-578T
[8] = test system: K562
[9] = test system: M14
[10] = test system: MCF7
[11] = test system: MDA-N
[12] = test system: MOLT-4
[13] = test system: NCI-H23
[14] = test system: SF-295
[15] = test system: SK-MEL-5
[16] = test system: SK-OV-3
[17] = test system: SNB-19
[18] = test system: T47D
[19] = test system: TK-10
[20] = test system: UACC-62

Measured: GI50

CCC1=C(C=O)c2cc3[nH]c(cc4nc(c5c6[nH]c(cc1n2)c(C)c6C(=O)C5C(=O)OC)C(CCC(=O)OC)C4C)c(C)c3CC (stereo not given)
inactive: [1] > 100 µM | [2] > 100 µM | [3] > 100 µM | [4] > 100 µM | [5] > 100 µM | [6] > 100 µM | [7] 88.1 µM | [8] > 100 µM | [9] > 100 µM | [10] > 100 µM | [11] > 100 µM | [12] > 100 µM | [13] > 100 µM | [14] > 100 µM | [15] > 100 µM | [16] > 100 µM | [17] > 100 µM | [18] > 100 µM | [19] > 100 µM | [20] > 100 µM
